Values of other authors, collected in PubChem BioAssay AID1259409 (Chemical Carcinogenesis Research Information System (CCRIS), 2018).

Tested on: rodent chemically induced tumor inhibition, incidence and multiplicity
Assay: CCRIS tumor inhibitor studies
Conditions: Dose [Inhibitor]: 0, Route [Inhibitor]: ORAL, Promoter: NONE USED

ClC1C(Cl)C(Cl)C(Cl)C(Cl)C1Cl (stereo unspecified)
tumour outcome (control, treated, inhibition, significance) (Carcinogen: DIETHYLNITROSAMINE, 55-18-5, 250 PPM IN DIET FOR 24 WK BEGINNING AT 28 D OF AGE (STUDY DURATION: 26 WK), Species: MOUSE, Strain/Sex: B6C3F1/MALE, Target Tissue: Type of Lesion: LIVER: ADENOMA, Dose [Carcinogen]: 5 UG/G BW IN 0.1 ML SALINE ONCE AT 15 D OF AGE): 15/15 (100%), 15/15 (100%), 0%, not significant
tumour outcome (control, treated, inhibition, significance) (100 PPM IN DIET ADMINISTERED CONCURRENTLY WITH CARCINOGEN FOR 1 WK (STUDY DURATION: 82 WK), Species: RAT, Strain/Sex: BUFFALO/FEMALE, Target Tissue: Type of Lesion: LIVER: TUMOR, Dose [Carcinogen]: 1 PPM IN DIET FOR 1 WK): 6/19 (32%), 1/20 (5%), 84%, not calculated
tumour outcome (control, treated, inhibition, significance) (100 PPM IN DIET ADMINISTERED CONCURRENTLY WITH CARCINOGEN FOR 3 WK (STUDY DURATION: 82 WK), Species: RAT, Strain/Sex: BUFFALO/FEMALE, Target Tissue: Type of Lesion: LIVER: TUMOR, Dose [Carcinogen]: 1 PPM IN DIET FOR 3 WK): 6/19 (32%), 0/23 (0%), 100%, not calculated
tumour outcome (control, treated, inhibition, significance) (100 PPM IN DIET ADMINISTERED CONCURRENTLY WITH CARCINOGEN FOR 5 WK (STUDY DURATION: 82 WK), Species: RAT, Strain/Sex: BUFFALO/FEMALE, Target Tissue: Type of Lesion: LIVER: TUMOR, Dose [Carcinogen]: 1 PPM IN DIET FOR 5 WK): 6/19 (32%), 0/17 (0%), 100%, not calculated
tumour outcome (control, treated, inhibition, significance) (100 PPM IN DIET ADMINISTERED CONCURRENTLY WITH CARCINOGEN FOR 10 WK (STUDY DURATION: 82 WK), Species: RAT, Strain/Sex: BUFFALO/FEMALE, Target Tissue: Type of Lesion: LIVER: TUMOR, Dose [Carcinogen]: 1 PPM IN DIET FOR 10 WK): 6/19 (32%), 0/22 (0%), 100%, not calculated
tumour outcome (control, treated, inhibition, significance) (100 PPM IN DIET ADMINISTERED CONCURRENTLY WITH CARCINOGEN FOR 15 WK (STUDY DURATION: 82 WK), Species: RAT, Strain/Sex: BUFFALO/FEMALE, Target Tissue: Type of Lesion: LIVER: TUMOR, Dose [Carcinogen]: 1 PPM IN DIET FOR 15 WK): 6/19 (32%), 0/13 (0%), 100%, not calculated
